Data on twelve compounds can be found in patent US20110136730A1, “"Method for screening compounds comprising the use of picornavirus protease 2A"” (priority 2008, published 2011).

This assay relates to WT FMDV StopGo expressing construct in HEK-293 cells. Format: cell-based, human.

Take `COc1ccc(C[C@H]2NC[C@H](O)[C@H]2OC(C)=O)cc1` [anisomycin]: the “effect on the Renilla/firefly ratio of the WT StopGo expressing construct” value (from here on “effect on the Renilla/firefly ratio”) is reported as “do not affect StopGo”.

On to `CC[C@H]1OC(=O)[C@H](C)[C@@H](O[C@H]2C[C@@](C)(OC)[C@@H](O)[C@H](C)O2)[C@H](C)[C@@H](O[C@@H]2O[C@H](C)C[C@H](N(C)C)[C@H]2O)[C@](C)(O)C[C@@H](C)CN(C)[C@H](C)[C@@H](O)[C@]1(C)O` [azithromycin], for which the “effect on the Renilla/firefly ratio” value was “do not affect StopGo”.

Regarding `CC[C@H]1OC(=O)[C@H](C)[C@@H](O[C@H]2C[C@@](C)(OC)[C@@H](O)[C@H](C)O2)[C@H](C)[C@@H](O[C@@H]2O[C@H](C)C[C@H](N(C)C)[C@H]2O)[C@](C)(OC)C[C@@H](C)C(=O)[C@H](C)[C@@H](O)[C@]1(C)O` [clarithromycin], the “effect on the Renilla/firefly ratio” value is reported as “do not affect StopGo”.

In the case of `CCC[C@@H]1C[C@@H](C(=O)N[C@@H]([C@H]2O[C@H](SC)[C@H](O)[C@@H](O)[C@H]2O)[C@H](C)Cl)N(C)C1` [clindomygin], the “effect on the Renilla/firefly ratio” value is reported as “do not affect StopGo”.

Take `C[C@H]1O[C@H](O[C@H]2[C@H](O)[C@@H](O)[C@@H](O)[C@H](O)[C@@H]2O)[C@@H](N)C[C@@H]1NC(=N)C(=O)O` [kasugamycin]: the “effect on the Renilla/firefly ratio” value is listed as “do not affect StopGo”.

Turning to `CCC[C@@H]1C[C@@H](C(=O)N[C@@H]([C@H]2O[C@H](SC)[C@H](O)[C@@H](O)[C@H]2O)[C@@H](C)O)N(C)C1` [lincomycin], the “effect on the Renilla/firefly ratio” value is reported as “do not affect StopGo”.

For the compound `C=C[C@]1(C)C[C@@H](OC(=O)CSCCN(CC)CC)[C@]2(C)[C@H](C)CC[C@]3(CCC(=O)[C@H]32)[C@@H](C)[C@@H]1O` [tiamulin], the “effect on the Renilla/firefly ratio” value is listed as “do not affect StopGo”.

Take `CO[C@H]1C[C@H](O[C@H]2[C@H](C)[C@@H](O[C@@H]3O[C@H](C)C[C@H](N(C)C)[C@H]3OC(C)=O)[C@@H](C)C[C@@]3(CO3)C(=O)[C@H](C)[C@@H](OC(C)=O)[C@@H](C)[C@@H](C)OC(=O)[C@@H]2C)O[C@@H](C)[C@@H]1OC(C)=O` [troleandomycin]: the “effect on the Renilla/firefly ratio” value is on record as “do not affect StopGo”.

On to `CC[C@H]1OC(=O)C[C@@H](O)[C@H](C)[C@@H](O[C@@H]2O[C@H](C)[C@@H](O[C@H]3C[C@@](C)(O)[C@@H](O)[C@H](C)O3)[C@H](N(C)C)[C@H]2O)[C@@H](CC=O)C[C@@H](C)C(=O)/C=C/C(C)=C/[C@@H]1CO[C@@H]1O[C@H](C)[C@@H](O)[C@@H](OC)[C@H]1OC` [tylosin], for which the “effect on the Renilla/firefly ratio” value is given as “do not affect StopGo”.

In the case of `C=C[C@]1(C)C[C@@H](OC(=O)CSC(C)(C)CNC(=O)[C@H](N)C(C)C)[C@]2(C)[C@H](C)CC[C@]3(CCC(=O)[C@H]32)[C@@H](C)[C@@H]1O` [valnemulin], the “effect on the Renilla/firefly ratio” value was “do not affect StopGo”.

On to capromycin, for which the “effect on the Renilla/firefly ratio” value is listed as “do not affect StopGo”.

Turning to gentamycin, the “effect on the Renilla/firefly ratio” value was “do not affect StopGo”.
